IC50 and inhibition data for ten compounds are collected here from patent US6713477B1, “Hydroxamic acid derivatives” (Sumitomo Pharmaceuticals Company, Limited, priority 2000, dated 2004).

Usually IC50 stands for the concentration that gives 50% inhibition. For orientation: inhibition means how much of the control response was suppressed.

The target of one assay is T1, MMP-9 (Homo sapiens, UniProt P14780).
T1 construct: Both enzymes were commercially available as active forms (Yagai-Cosmobio); purchased Yagai-Cosmobio
The assay can be described thus: Inhibition assay against MMP-9 (fluorescent MCA-labeled substrate). It is filed as biochemical. The note with it: active MMP at 20 nM, 37° C., 1.5 hours. The method, then: (§1) Both enzymes were commercially available as active forms (Yagai-Cosmobio) and were used for inhibition assays.
(§2) Enzymatic assays were performed in accordance with C. G. Knight's method (FEBS Lett., 296(3), 263-266 (1992)). The fluorescent MCA-labeled substrate, (7-methoxycumaline-4-yl)-Pro-Leu-Gly-Leu-L-[N-(2,4-dinitrophenyl)-L-2,3-diaminopropionyl]-Ala-Arg-NH2 (Peptide Institute. Inc.) was used for measuring the kinetics of inhibition for each tested compound.
(§3) The substrate was incubated at 37° C. for 1.5 hours (MMP-1; for 24 hours) with active MMP (at 20 nM, except MMP-13 at 5 nM) and a test compound in assay buffer containing 100 mM Tris-HCl (pH7.5), 10 mM CaCl2, 100 MM NaCl and 0.05% Brij-35.

For assay [1], the system named is TNF-α release from RAW 267.4. As to the kind of experiment: Inhibition ELISA for Tumor Necrosis Factor-α (TNF-α) release, LPS-stimulated RAW 267.4 cells. It is filed as cell-based. The settings on record: Mus musculus, RAW267.4, LPS-stimulated RAW 267.4, 24 hours, read-out: Inhibition of TNF production at 5 μM. The method, then:
RAW 267.4 (derived from mouse monocytes) was seeded in RPMI1640 containing 10% of FBS (GIBCO BRL) at 100 μL/well (5×10^5 cells/mL) onto 96-well microplates and cultured at 37° C., 5% CO2. After culturing for 4 hours, each test compound diluted in RPMI1640 was added at 50 μL/well. 15 minutes later, […] LPS (DIFCO) diluted in RPMI1640 was added at 50 μL/well and cultured for 24 hours.
TNF-α produced was measured by ELISA as usual. (For example; J. Cellular Physiol. 154, 479 (1993)) Absorbance at 450 nm (normalized at 620 nm) was measured and percentage of the amount of TNF-α release for each tested compound (n=2) was determined (0% for untreated control (n=4), and 100% for LPS stimulation (n=4)).
On the technique in general: ELISA stands for enzyme-linked immunosorbent assay.

A further assay addresses T2, MMP-2 (Homo sapiens, UniProt P08253).
T2 construct: Both enzymes were commercially available as active forms (Yagai-Cosmobio); purchased Yagai-Cosmobio
T2 sequence (P08253 110-660): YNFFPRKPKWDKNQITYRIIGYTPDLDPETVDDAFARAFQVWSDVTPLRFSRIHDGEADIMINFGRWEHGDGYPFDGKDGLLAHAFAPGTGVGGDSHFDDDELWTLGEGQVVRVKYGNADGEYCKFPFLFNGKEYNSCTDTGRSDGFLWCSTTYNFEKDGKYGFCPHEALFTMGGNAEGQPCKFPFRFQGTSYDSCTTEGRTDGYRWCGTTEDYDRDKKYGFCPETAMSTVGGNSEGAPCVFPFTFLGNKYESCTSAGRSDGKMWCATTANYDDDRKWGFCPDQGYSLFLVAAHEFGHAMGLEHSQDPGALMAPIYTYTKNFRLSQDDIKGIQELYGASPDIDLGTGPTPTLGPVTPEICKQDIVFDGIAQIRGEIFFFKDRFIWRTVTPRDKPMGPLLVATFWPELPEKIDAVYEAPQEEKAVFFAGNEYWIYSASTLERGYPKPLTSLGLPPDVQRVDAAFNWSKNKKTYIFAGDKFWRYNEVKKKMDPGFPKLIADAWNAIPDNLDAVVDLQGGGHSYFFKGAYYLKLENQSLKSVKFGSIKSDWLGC
The assay can be described thus: Inhibition assay against MMP-2 (fluorescent MCA-labeled substrate). It is filed as biochemical. The settings on record: active MMP at 20 nM, 37° C., 1.5 hours. The method, then: as §1, §2, §3

Assay [2] addresses T3, MMP-3 (Matrix Metalloproteinase-3, Stromelysin-1) (Homo sapiens, UniProt P08254).
T3 construct: C-terminal truncated form of human prostromelysin cDNA; made in house; host or cells: E. coli
As to the kind of experiment: Inhibition assay against MMP-3 (fluorescent MCA-labeled substrate). In kind it is biochemical. The settings on record: Table 10; active MMP at 20 nM, 37° C., 1.5 hours; read-out: IC50 MMP3. The method, then: C-terminal truncated form of human prostromelysin cDNA (proMMP-3, cDNA sequence in Nature, 348, 699-704 (1990)) was subcloned, expressed in E.coli and purified as described previously (Biochemistry 30, 6476-6483 (1991)). Activation of proMMP-3 was achieved by treatment with 1 mM 4-aminophenylmercuric acetate at 37° C. for 60 min.
as §2, §3

In assay [3] the target is T4, MMP-13 (Matrix Metalloproteinase-13, Collagenase-3) (Homo sapiens, UniProt P45452).
T4 construct: made in house; host or cells: E. coli BL21 (DE3), pET11a
The assay can be described thus: Inhibition assay against MMP-13 (fluorescent MCA-labeled substrate). In kind it is biochemical. The settings on record: Table 10; active MMP-13 at 5 nM, 37° C., 1.5 hours; read-out: IC50 MMP13.
Excerpt: To subclone C-terminal truncated form of procollagenase-3 (proMMP-13) cDNA (J.Biol.Chem., 269(24), 16766-16773 (1994)), two synthetic oligonucleotide primer (5′-[…]-3′ and 5′-[…]-3′: the former incorporates sequences for a unique NdeI site (underlined) including initial methionine, and the latter has sequences for a stop codon and BamHI site (underlined)) were used with human chondrocyte cDNA library (CLONTECH) in PCR. With these primers and Pfu DNA polymerase (STRATAGENE) in PCR, 767 bp fragment was generated, which encodes 84 amino acid prosequence and 164 amino acids of mature MMP-13. The fragment was digested with NdaI and BamHI, ligated into the NdeI and BamHI sites of pET11a (STRATAGENE), transformed in E.coli BL21 (DE3) and cultured. The crude cell extract was prepared as described in Biochemistry. The extract was dialyzed against 20 mM Tris-HCl(pH7.2)/5 mM CaCl2/0.02% NaN3 and applied to a SP-Sepharose HP column (1.6×10 cm, Amersham-Pharmacia Biotech), and elution was performed with 50 mL linear gradient of 0 to 0.3 M NaCl (partially purified proMMP-13 was eluted at 0.2 M approximately). The fraction was dialyzed against 20 mM Tris-HCl(pH7.9)/5 mM CaCl2,/200 mM (NH4)2SO4/0.02% NaN3 and applied to a Phenyl Sepharose HP column (1.6×5 cm, Amersham-Pharmacia Biotech), and elution was performed with 20 mL linear gradient of 0.2 to 0 M (NH4)2SO4 (pure proHMP-13 was eluted at 50 mM approximately). The fraction was concentrated by YM-5 ultrafiltration membrane and activated with 4-aminophenylmercuric acetate and active MMP-13 was separated from propeptide fragments by gel filtration chromatography as described in Biochemistry.
as §2, §3

T3 sequence (P08254 100-272 limits assumed): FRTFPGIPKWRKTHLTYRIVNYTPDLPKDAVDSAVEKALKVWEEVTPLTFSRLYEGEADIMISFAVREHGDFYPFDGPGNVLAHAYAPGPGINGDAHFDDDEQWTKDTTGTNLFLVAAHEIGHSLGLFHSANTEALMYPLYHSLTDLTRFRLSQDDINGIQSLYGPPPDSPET
T1 sequence (P14780 107-707 limits assumed, species assumed): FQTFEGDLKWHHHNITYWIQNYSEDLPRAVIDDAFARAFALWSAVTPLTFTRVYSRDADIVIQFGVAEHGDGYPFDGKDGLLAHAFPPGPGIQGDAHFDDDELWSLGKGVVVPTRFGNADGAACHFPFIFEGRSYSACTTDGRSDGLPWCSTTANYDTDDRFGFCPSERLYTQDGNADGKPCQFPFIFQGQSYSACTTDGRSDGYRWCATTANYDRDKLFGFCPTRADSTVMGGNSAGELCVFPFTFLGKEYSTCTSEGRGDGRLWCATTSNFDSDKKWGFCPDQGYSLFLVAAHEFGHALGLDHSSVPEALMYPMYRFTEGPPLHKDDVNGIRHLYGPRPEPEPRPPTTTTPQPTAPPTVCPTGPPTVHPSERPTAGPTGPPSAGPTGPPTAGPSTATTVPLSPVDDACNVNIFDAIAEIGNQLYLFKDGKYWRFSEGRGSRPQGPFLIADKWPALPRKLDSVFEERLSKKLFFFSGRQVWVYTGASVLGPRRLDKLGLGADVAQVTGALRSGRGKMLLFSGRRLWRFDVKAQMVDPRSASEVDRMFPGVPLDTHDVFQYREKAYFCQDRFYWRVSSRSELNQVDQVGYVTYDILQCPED

With `COc1ccc(C2SCC(=O)N2[C@@H](CC(C)C)C(=O)NO)cc1` (stereo partly drawn) [Example 21, 3-[(1S)-(N-Hydroxyaminocarbonyl)-3-methylbutyl]-2-(4-methoxyphenyl)-1,3-thiazolidine-4-one], the IC50 against MMP-9 is over 1 µM.

In the case of `COc1ccc(/C=C2\Sc3ccccc3N(CC(=O)NO)C2=O)cc1` [Example 365, 2H-2(Z)-(4-Methoxybenzylidene)-1,4-benzothiazin-3(4H)-one-4-yl-acetic Acid N-Hydroxylamide], the inhibition at 5 µM in assay [1] was 20%. Also, the figures for the IC50 at MMP-2 and against MMP-9 were 0.32 µM and 0.11 µM, respectively.

As for `O=C(CN1C(=O)/C(=C/c2ccc(Oc3ccccc3)cc2)Sc2ccccc21)NO` [Example 368], the IC50 in assay [2] was 1.5 µM; in assay [3], 0.036 µM; against MMP-2 it was 0.3 µM; against MMP-9, under 0.01 µM. The inhibition at 5 µM in assay [1] worked out at 30%.

On to `CCCCOc1ccc(C=C2Sc3ccccc3N(CC(=O)NO)C2=O)cc1` [Example 369], for which the values for the IC50 against MMP-2 and at MMP-9 were over 1 µM and 0.2 µM, respectively.

Turning to `COc1ccc(CC2Sc3ccccc3N([C@H](C)C(=O)NO)C2=O)cc1` (some centres unmarked) [Example 438], the IC50 was found to be 1.66 µM in assay [2] and 0.375 µM in assay [3].

Regarding `COc1ccc(NC(=O)CC2Sc3ccccc3N(CC(=O)NO)C2=O)cc1` (centres unmarked) [Example 441, 2H-2-[N′-(4-Methoxyphenyl)-carbamoylmethyl]-1,4-benzothiazin-3(4H)-one-4-yl-acetic Acid N-Hydroxylamide], the values for the IC50 in assay [2] and in assay [3] were 2.96 µM and 0.118 µM, respectively.

With `COc1ccc(C2SC(CC(=O)NC(C)C)C(=O)N2C(Cc2ccccc2)C(=O)NO)cc1` (centres unmarked) [Example 479], the results for the IC50 in assay [2] and in assay [3] were 0.27 µM and 0.019 µM, respectively.

Turning to `CC(C)CC(C(=O)NO)N1C(=O)C(CC(=O)NCc2ccco2)[S+]([O-])C1c1ccc(Oc2ccc(Cl)cc2)cc1` (centres unmarked) [Example 739], the IC50 stood at 0.301 µM in assay [2] and 0.017 µM in assay [3].

Regarding `COCCNC(=O)CC1C(=O)N(C(CC(C)C)C(=O)NO)C(c2ccc(Oc3ccc(Cl)cc3)cc2)[S+]1[O-]` (centres unmarked) [Example 740], the IC50 in assay [2] is 0.459 µM; in assay [3], 0.012 µM.

In the case of `COc1ccc(CC2Sc3cc(C(=O)N[C@H](CO)CC(C)C)ccc3N(CC(=O)NO)C2=O)cc1` (some centres unmarked) [Example 865], the values for the IC50 in assay [2] and in assay [3] were 0.053 µM and 0.0049 µM, respectively.
